In patent publication US20090275611A1, “Compounds Which Modulate The CB2 Receptor” (BOEHRINGER INGELHEIM INTERNATIONAL GMBH, priority 2006, published 2009):

Target: T1, human CB2R (Homo sapiens, UniProt P34972)
T1 construct: host or cells: CHO cells
Test: CB2R mediated modulation of cAMP synthesis
Assay type: cell-based
Details: qualitative statement; found 'through the use of the above described assays'; CHO cells expressing human CB2R, forskolin-stimulated cAMP
Protocol: B. CB2R Mediated Modulation of cAMP Synthesis:
CHO cells expressing human CB2R (Euroscreen) were plated at a density of 5000 cells per well in 384 well plates and incubated overnight at 37° C. After removing the media, the cells were treated with test compounds diluted in stimulation buffer containing 1 mM IBMX, 0.25% BSA and 10 uM Forskolin. The assay was incubated for 30 minutes at 37° C. Cells were lysed and the cAMP concentration was measured using DiscoverX-XS cAMP kit, following the manufacturer's protocol. In this setting, agonists will decrease forskolin induced production of cAMP while inverse agonists will further increase forskolin induced production of cAMP. EC50 of agonists were calculated as follows. The maximal amount of cAMP produced by forskolin compared to the level of cAMP inhibited by 1 uM CP55940 is defined as 100%. The EC50 value of each test compound was determined as the concentration at which 50% of the forskolin-stimulated cAMP synthesis was inhibited. Data was analyzed using a four-parameter logistic model. (Model 205 of XLfit 4.0).

T1 sequence (P34972 whole entry): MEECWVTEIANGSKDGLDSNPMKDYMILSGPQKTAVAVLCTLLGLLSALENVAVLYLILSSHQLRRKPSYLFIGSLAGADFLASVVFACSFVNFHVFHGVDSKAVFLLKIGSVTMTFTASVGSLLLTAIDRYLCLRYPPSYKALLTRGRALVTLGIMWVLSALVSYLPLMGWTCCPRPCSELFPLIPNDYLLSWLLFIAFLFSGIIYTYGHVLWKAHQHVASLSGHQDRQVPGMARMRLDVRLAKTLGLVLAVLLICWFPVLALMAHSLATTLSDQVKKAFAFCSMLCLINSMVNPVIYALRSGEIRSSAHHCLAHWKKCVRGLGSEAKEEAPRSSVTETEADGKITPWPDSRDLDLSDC

agonistic activity	SMILES
agonistic activity	CN(Cc1ccc(Nc2ccccc2Cl)cc1)CC(O)c1ccccc1 (centres unmarked) [Example 4, 2-{[4-(2-chloro-phenylamino)-benzyl]-methyl-amino}-1-phenyl-ethanol]
agonistic activity	CN(Cc1ccc(Nc2ccccc2Cl)cc1)C[C@H](O)c1ccccc1 [Example 5, (R)-2-{[4-(2-chloro-phenylamino)-benzyl]-methyl-amino}-1-phenyl-ethanol]
agonistic activity	Cc1ccc(Cl)c(Nc2ccc(CN(C)CC(O)c3ccccc3)cn2)c1 (centres unmarked) [Example 8, 2-{[6-(2-chloro-5-methyl-phenylamino)-pyridin-3-ylmethyl]-methyl-amino}-1-phenyl-ethanol]
agonistic activity	Cc1ccc(Cl)cc1Nc1ccc(CN(C)CC(O)c2ccccc2)cn1 (centres unmarked) [Example 9, 2-{[6-(5-chloro-2-methyl-phenylamino)-pyridin-3-ylmethyl]-methyl-amino}-1-phenyl-ethanol]
agonistic activity	CN(Cc1ccc(Nc2ccccc2Cl)nc1)CC(O)c1ccccc1 (centres unmarked) [Example 10, 2-{[6-(2-chloro-phenylamino)-pyridin-3-ylmethyl]-methyl-amino}-1-phenyl-ethanol]
agonistic activity	Cc1ccccc1Nc1ccc(CN(C)CC(O)c2ccccc2)cn1 (centres unmarked) [Example 11, 2-[methyl-(6-o-tolylamino-pyridin-3-ylmethyl)-amino]-1-phenyl-ethanol]
agonistic activity	CN(Cc1ccc(Oc2ccccc2)nc1)C[C@@H](O)c1ccccc1 [Example 21, (S)-2-[Methyl-(6-phenoxy-pyridin-3-ylmethyl)-amino]-1-phenyl-ethanol]

Further lines, the molecule ahead of its results:

SMILES	agonistic activity
Cc1ccc(C)c(Nc2ccc(CN(C)CC(O)c3ccccc3)cc2)c1 (centres unmarked) [Example 1, 2-{[4-(2,5-Dimethyl-phenylamino)-benzyl]-methyl-amino}-1-phenyl-ethanol]	agonistic activity
CN(Cc1ccc(Nc2ccccc2)cc1)CC(O)c1ccccc1 (centres unmarked) [Example 2, 2-[methyl-(4-phenylamino-benzyl)-amino]-1-phenyl-ethanol]	agonistic activity
Cc1ccc(Cl)c(Nc2ccc(CN(C)CC(O)c3ccccc3)cc2)c1 (centres unmarked) [Example 3, 2-{[4-(2-chloro-5-methyl-phenylamino)-benzyl]-methyl-amino}-1-phenyl-ethanol]	agonistic activity
Cc1ccccc1Nc1ccc(CN(C)CC(O)c2ccccc2)cc1 (centres unmarked) [Example 6, 2-[methyl-4(o-tolylamino-benzyl)-amino]-1-phenyl-ethanol]	agonistic activity
Cc1ccc(C)c(Nc2ccc(CN(C)CC(O)c3ccccc3)cn2)c1 (centres unmarked) [Example 7, 2-{[6-(2,5-dimethyl-phenylamino)-pyridin-3-ylmethyl]-methyl-amino}-1-phenyl-ethanol]	agonistic activity
CN(Cc1ccc(Nc2ccccc2)cc1)C[C@H](O)c1ccccc1 [Example 15, (R)-2-[Methyl-(4-phenylamino-benzyl)-amino]-1-phenyl-ethanol]	agonistic activity
CN(Cc1ccc(S(=O)(=O)c2ccccc2)cc1)C[C@H](O)c1ccccc1 [Example 17, (R)-2-[(4-Benzenesulfonyl-benzyl)-methyl-amino]-1-phenyl-ethanol]	agonistic activity
CN(Cc1ccc(Oc2ccccc2)cc1)C[C@H](O)c1ccccc1 [Example 19, (R)-2-[Methyl-(4-phenoxy-benzyl)-amino]-1-phenyl-ethanol]	agonistic activity
CN(Cc1cnc2ccccc2c1)C[C@H](O)c1ccccc1 [Example 20, (R)-2-(Methyl-quinolin-3-ylmethyl-amino)-1-phenyl-ethanol]	agonistic activity
O[C@H](CNCc1cnc2ccccc2c1)c1ccccc1 [Example 22, (S)-1-Phenyl-2-[(quinolin-3-ylmethyl)-amino]-ethanol]	agonistic activity
